Experimental data published in ChEMBL document CHEMBL5705899 (Biochem J, 2014).
Activity calls are given as the source filed them. No cut-off for these calls is given here.

Columns and labels:
[1] = molecular target: Mitogen-activated protein kinase kinase kinase 5 (Homo sapiens) (UniProt Q99683); test: Inhibition of human ASK1 at 1 uM using RBER-GSK3 as substrate in presence of 33P-ATP by ProQinase assay
[2] = molecular target: Ephrin type-A receptor 1 (Homo sapiens) (UniProt P21709); test: Inhibition of human EPHA1 at 1 uM using polyEY as substrate in presence of 33P-ATP by ProQinase assay
[3] = molecular target: Homeodomain-interacting protein kinase 4 (Homo sapiens) (UniProt Q8NE63); test: Inhibition of human HIPK4 at 1 uM using RBER-IRStide as substrate in presence of 33P-ATP by ProQinase assay
[4] = molecular target: Serine/threonine-protein kinase NLK (Homo sapiens) (UniProt Q9UBE8); test: Inhibition of human NLK at 1 uM using RBER-GSK3 as substrate in presence of 33P-ATP by ProQinase assay
[5] = molecular target: Activin receptor type-2A (Homo sapiens) (UniProt P27037); test: Inhibition of human ACVR2A at 1 uM using casein as substrate in presence of 33P-ATP by ProQinase assay
[6] = molecular target: Serine/threonine-protein kinase pim-1 (Homo sapiens) (UniProt P11309); test: Inhibition of recombinant human N-terminal His6-tagged PIM1 (2 to 313 residues) expressed in baculovirus infected Sf21 cells assessed as remaining activity at 1 uM using RSRHSSYPAGT as substrate incubated for 30 mins in presence of [gamma-33P]ATP by filter binding method relative to control
[7] = molecular target: SRSF protein kinase 1 (Homo sapiens) (UniProt Q96SB4); test: Inhibition of human SRPK1 at 1 uM using MBP as substrate in presence of 33P-ATP by ProQinase assay
[8] = molecular target: Receptor-interacting serine/threonine-protein kinase 2 (Homo sapiens) (UniProt O43353); test: Inhibition of human RIPK2 at 1 uM using RBER-CHKtide as substrate in presence of 33P-ATP by ProQinase assay
[9] = molecular target: cGMP-dependent protein kinase 2 (Homo sapiens) (UniProt Q13237); test: Inhibition of human PRKG2 at 1 uM using RBER-GSK3 as substrate in presence of 33P-ATP by ProQinase assay
PI3K p110 beta/p85 alpha = PI3K p110 beta/p85 alpha (Homo sapiens, UniProt P42338); test: Inhibition of human PIK3CB/PIK3R1 using PIP2/PS as substrate by ADP-Glo assay; assay type: protein-complex assay
Homo sapiens = organism: Homo sapiens; test: Inhibition of recombinant human N-terminal His6-tagged PI3Kalpha E542K mutant (2 to 1068 residues)/p85A (1 to 724 residues) expressed in baculovirus expression system at 1 uM using diC8 PIP2 as substrate incubated for 80 mins by ADP-Glo assay
[10] = molecular target: G protein-coupled receptor kinase 5 (Homo sapiens) (UniProt P34947); test: Inhibition of human GRK5 at 1 uM using casein as substrate in presence of 33P-ATP by ProQinase assay
[11] = molecular target: Serine/threonine-protein kinase SIK2 (Homo sapiens) (UniProt Q9H0K1); test: Inhibition of recombinant human N-terminal GST and HA-tagged SIK2 (2 to 926 residues) expressed in baculovirus infected Sf21 cells assessed as remaining activity at 1 uM using ALNRTSSDSALHRRR as substrate incubated for 30 mins in presence of [gamma-33P]ATP by filter binding method relative to control
[12] = molecular target: STE20-like serine/threonine-protein kinase (Homo sapiens) (UniProt Q9H2G2); test: Inhibition of human SLK at 1 uM using RB-S6P as substrate in presence of 33P-ATP by ProQinase assay
[13] = molecular target: Beta-adrenergic receptor kinase 1 (Homo sapiens) (UniProt P25098); test: Inhibition of human GRK2 at 1 uM using casein as substrate in presence of 33P-ATP by ProQinase assay
[14] = molecular target: Ephrin type-A receptor 5 (Homo sapiens) (UniProt P54756); test: Inhibition of human EPHA5 at 1 uM using polyEY as substrate in presence of 33P-ATP by ProQinase assay
[15] = molecular target: Diacylglycerol kinase alpha (Homo sapiens) (UniProt P23743); test: Inhibition of DGKalpha (unknown origin) at 1 uM
[16] = molecular target: Mitogen-activated protein kinase 15 (Homo sapiens) (UniProt Q8TD08); test: Inhibition of recombinant human N-terminal His6-tagged ERK8 (2 to 544 residues) expressed in baculovirus infected Sf21 cells assessed as remaining activity at 1 uM using MBP as substrate incubated for 30 mins in presence of [gamma-33P]ATP by filter binding method relative to control
[17] = molecular target: Discoidin domain-containing receptor 2 (Homo sapiens) (UniProt Q16832); test: Inhibition of recombinant human N-terminal GST-tagged DDR2 (467 to 854 residues) expressed in baculovirus infected Sf21 cells assessed as remaining activity at 1 uM using KKSRGDYMTMQIG as substrate incubated for 30 mins in presence of [gamma-33P]ATP by filter binding method relative to control
[18] = molecular target: Serine/threonine-protein kinase PAK 4 (Homo sapiens) (UniProt O96013); test: Inhibition of recombinant human N-terminal GST-tagged PAK4 (2 to 519 residues) expressed in Escherichia coli assessed as remaining activity at 1 uM using RRRLSFAEPG as substrate incubated for 30 mins in presence of [gamma-33P]ATP by filter binding method relative to control
[19] = molecular target: Non-receptor tyrosine-protein kinase TYK2 (Homo sapiens) (UniProt P29597); test: Inhibition of human TYK2 at 1 uM using poly(Ala,Glu,Lys,Tyr) as substrate in presence of 33P-ATP by ProQinase assay
[20] = molecular target: Lymphokine-activated killer T-cell-originated protein kinase (Homo sapiens) (UniProt Q96KB5); test: Inhibition of human PBK at 1 uM using histon H1 as substrate in presence of 33P-ATP by ProQinase assay
[21] = molecular target: NT-3 growth factor receptor (Homo sapiens) (UniProt Q16288); test: Inhibition of human TRKC at 1 uM using polyEy as substrate in presence of 33P-ATP by ProQinase assay
[22] = molecular target: Serine/threonine-protein kinase Sgk1 (Homo sapiens) (UniProt O00141); test: Inhibition of human SGK1 at 1 uM using RBER-GSK3 as substrate in presence of 33P-ATP by ProQinase assay
[23] = molecular target: Diacylglycerol kinase eta (Homo sapiens) (UniProt Q86XP1); test: Inhibition of DGKeta (unknown origin) at 1 uM
[24] = molecular target: MAP kinase-interacting serine/threonine-protein kinase 2 (Homo sapiens) (UniProt Q9HBH9); test: Inhibition of human MKNK2 at 1 uM using RB-S6P as substrate in presence of 33P-ATP by ProQinase assay
[25] = molecular target: Serine/threonine-protein kinase D3 (Homo sapiens) (UniProt O94806); test: Inhibition of human PKCnu at 1 uM using bio-4xCHKT as substrate in presence of 33P-ATP by ProQinase assay

Q: `CC(C)(O)CNc1ncc(-c2ccnc(Nc3ccnc(Cl)c3)n2)c(CC2CC2)n1` was tested. Which inhibition [1] did it give?
A: inactive

Q: What about the inhibition [2] of the same compound?
A: inactive

Q: What about the inhibition [3] of the same compound?
A: inactive

Q: And the inhibition [4]?
A: inactive

Q: And the inhibition [5]?
A: inactive

Q: What about the Activity [6] of the same compound?
A: 108%

Q: And the inhibition [7]?
A: inactive

Q: What about the inhibition [8] of the same compound?
A: inactive

Q: What about the inhibition [9] of the same compound?
A: inactive

Q: What about the IC50 (PI3K p110 beta/p85 alpha) of the same compound?
A: > 10 µM

Q: What about the inhibition (Homo sapiens) of the same compound?
A: inactive

Q: And the inhibition [10]?
A: inactive

Q: What about the Activity [11] of the same compound?
A: 106%

Q: And the inhibition [12]?
A: inactive

Q: And the inhibition [13]?
A: inactive

Q: What about the inhibition [14] of the same compound?
A: inactive

Q: What about the inhibition [15] of the same compound?
A: inactive

Q: What about the Activity [16] of the same compound?
A: 36%

Q: And the Activity [17]?
A: 111%

Q: And the Activity [18]?
A: 103%

Q: What about the inhibition [19] of the same compound?
A: inactive

Q: And the inhibition [20]?
A: inactive

Q: What about the inhibition [21] of the same compound?
A: inactive

Q: What about the inhibition [22] of the same compound?
A: inactive

Q: And the inhibition [23]?
A: inactive

Q: And the inhibition [24]?
A: inactive

Q: And the inhibition [25]?
A: inactive
